According to patent publication US20090246276A1, “Pharmaceutical Compositions” (priority 2008, published 2009):
Counter-ions that a name gives are not always drawn.

Experiment: In-vitro dissolution, 900 ml medium (0.1N HCl, pH 4.5 acetate buffer, pH 6.8 or pH 7.5 phosphate buffer), USP Apparatus 1, 75 rpm, 37° C.
Assay type: physicochemical
Details: for % Released (Bi-layer Tablets): Example 16 coated bi-layer tablet; for % Released (Homogenous Tablets): Example 19 tablet
Description: The dissolution profile of the above pharmaceutical composition was determined under the dissolution conditions described below in Tables 1A, 1B, and 1C.

In the case of `CN(C)CCC[C@@]1(c2ccc(F)cc2)OCc2cc(C#N)ccc21` [Escitalopram Ox, escitalopram oxalate], the “% Released” value (Example 2 tablet, 0.1N HCl, 1 hr) was 15%, the “% Released” value (Example 2 tablet, 0.1N HCl, 2 hr) was 35% and the “% Released” value (Example 2 tablet, 0.1N HCl, 4 hr) was 68%. The “% Released” value (Example 2 tablet, 0.1N HCl, 8 hr) was 99%, the “% Released” value (Example 2 tablet, 0.1N HCl, 12 hr) was 102% and the “% Released” value (Example 2 tablet, 0.1N HCl, 16 hr) was 101%. The “% Released” value (Example 2 tablet, pH 4.5 acetate buffer, 1 hr) was 15%, the “% Released” value (Example 2 tablet, pH 4.5 acetate buffer, 2 hr) was 35% and the “% Released” value (Example 2 tablet, pH 4.5 acetate buffer, 4 hr) was 64%. The “% Released” value (Example 2 tablet, pH 4.5 acetate buffer, 8 hr) was 97%, the “% Released” value (Example 2 tablet, pH 4.5 acetate buffer, 12 hr) was 101% and the “% Released” value (Example 2 tablet, pH 4.5 acetate buffer, 16 hr) was 100%. For the same compound, the “% Released” value (Example 2 tablet, pH 6.8 phosphate buffer, 1 hr) was 14%, the “% Released” value (Example 2 tablet, pH 6.8 phosphate buffer, 2 hr) was 33% and the “% Released” value (Example 2 tablet, pH 6.8 phosphate buffer, 4 hr) was 61%. For the same compound, the “% Released” value (Example 2 tablet, pH 6.8 phosphate buffer, 8 hr) was 92%, the “% Released” value (Example 2 tablet, pH 6.8 phosphate buffer, 12 hr) was 96% and the “% Released” value (Example 2 tablet, pH 6.8 phosphate buffer, 16 hr) was 96%. For the same compound, the “% Released” value (Example 3 tablet, 0.1N HCl, 1 hr) was 14%, the “% Released” value (Example 3 tablet, 0.1N HCl, 2 hr) was 32% and the “% Released” value (Example 3 tablet, 0.1N HCl, 4 hr) was 63%. The “% Released” value (Example 3 tablet, 0.1N HCl, 8 hr) was 102%, the “% Released” value (Example 3 tablet, 0.1N HCl, 12 hr) was 106% and the “% Released” value (Example 3 tablet, 0.1N HCl, 16 hr) was 105%. The “% Released” value (Example 3 tablet, pH 4.5 acetate buffer, 1 hr) was 13%, the “% Released” value (Example 3 tablet, pH 4.5 acetate buffer, 2 hr) was 29% and the “% Released” value (Example 3 tablet, pH 4.5 acetate buffer, 4 hr) was 57%. For the same compound, the “% Released” value (Example 3 tablet, pH 4.5 acetate buffer, 8 hr) was 96%, the “% Released” value (Example 3 tablet, pH 4.5 acetate buffer, 12 hr) was 102% and the “% Released” value (Example 3 tablet, pH 4.5 acetate buffer, 16 hr) was 101%. For the same compound, the “% Released” value (Example 3 tablet, pH 6.8 phosphate buffer, 1 hr) was 13%, the “% Released” value (Example 3 tablet, pH 6.8 phosphate buffer, 2 hr) was 29% and the “% Released” value (Example 3 tablet, pH 6.8 phosphate buffer, 4 hr) was 59%. For the same compound, the “% Released” value (Example 3 tablet, pH 6.8 phosphate buffer, 8 hr) was 99%, the “% Released” value (Example 3 tablet, pH 6.8 phosphate buffer, 12 hr) was 104% and the “% Released” value (Example 3 tablet, pH 6.8 phosphate buffer, 16 hr) was 104%. The “% Released” value (Example 5 tablet, 0.1N HCl, 1 hr) was 13%, the “% Released” value (Example 5 tablet, 0.1N HCl, 2 hr) was 26% and the “% Released” value (Example 5 tablet, 0.1N HCl, 4 hr) was 49%. The “% Released” value (Example 5 tablet, 0.1N HCl, 8 hr) was 81%, the “% Released” value (Example 5 tablet, 0.1N HCl, 12 hr) was 97% and the “% Released” value (Example 5 tablet, 0.1N HCl, 16 hr) was 98%. For the same compound, the “% Released” value (Example 6 tablet, 0.1N HCl, 1 hr) was 16%, the “% Released” value (Example 6 tablet, 0.1N HCl, 2 hr) was 34% and the “% Released” value (Example 6 tablet, 0.1N HCl, 4 hr) was 63%. The “% Released” value (Example 6 tablet, 0.1N HCl, 8 hr) was 97%, the “% Released” value (Example 6 tablet, 0.1N HCl, 12 hr) was 100% and the “% Released” value (Example 6 tablet, 0.1N HCl, 16 hr) was 100%. For the same compound, the “% Released” value (Example 7 tablet, 0.1N HCl, 1 hr) was 2%, the “% Released” value (Example 7 tablet, 0.1N HCl, 2 hr) was 7% and the “% Released” value (Example 7 tablet, 0.1N HCl, 4 hr) was 19%. The “% Released” value (Example 7 tablet, 0.1N HCl, 8 hr) was 44%, the “% Released” value (Example 7 tablet, 0.1N HCl, 12 hr) was 63% and the “% Released” value (Example 7 tablet, 0.1N HCl, 16 hr) was 77%. For the same compound, the “% Released” value (Example 8 tablet, 0.1N HCl, 1 hr) was 0%, the “% Released” value (Example 8 tablet, 0.1N HCl, 2 hr) was 1% and the “% Released” value (Example 8 tablet, 0.1N HCl, 4 hr) was 6%. For the same compound, the “% Released” value (Example 8 tablet, 0.1N HCl, 8 hr) was 19%, the “% Released” value (Example 8 tablet, 0.1N HCl, 12 hr) was 31% and the “% Released” value (Example 8 tablet, 0.1N HCl, 16 hr) was 40%. The “% Released” value (Example 9 tablet, 0.1N HCl, 1 hr) was 17%, the “% Released” value (Example 9 tablet, 0.1N HCl, 2 hr) was 48% and the “% Released” value (Example 9 tablet, 0.1N HCl, 3 hr) was 74%. The “% Released” value (Example 9 tablet, 0.1N HCl, 4 hr) was 93%, the “% Released” value (Example 9 tablet, 0.1N HCl, 6 hr) was 104% and the “% Released” value (Example 9 tablet, 0.1N HCl, 8 hr) was 103%. For the same compound, the “% Released” value (Example 9 tablet, 0.1N HCl, 10 hr) was 103%, the “% Released” value (Example 10 tablet, 0.1N HCl, 1 hr) was 14% and the “% Released” value (Example 10 tablet, 0.1N HCl, 2 hr) was 32%. For the same compound, the “% Released” value (Example 10 tablet, 0.1N HCl, 4 hr) was 59%, the “% Released” value (Example 10 tablet, 0.1N HCl, 8 hr) was 94% and the “% Released” value (Example 10 tablet, 0.1N HCl, 12 hr) was 99%. The “% Released” value (Example 10 tablet, 0.1N HCl, 16 hr) was 99%, the “% Released” value (Example 11 tablet, 0.1N HCl, 1 hr) was 16% and the “% Released” value (Example 11 tablet, 0.1N HCl, 2 hr) was 33%. The “% Released” value (Example 11 tablet, 0.1N HCl, 4 hr) was 56%, the “% Released” value (Example 11 tablet, 0.1N HCl, 8 hr) was 88% and the “% Released” value (Example 11 tablet, 0.1N HCl, 12 hr) was 97%. For the same compound, the “% Released” value (Example 11 tablet, 0.1N HCl, 16 hr) was 97%, the “% Released” value (Example 12 tablet, 0.1N HCl, 1 hr) was 8% and the “% Released” value (Example 12 tablet, 0.1N HCl, 2 hr) was 29%. For the same compound, the “% Released” value (Example 12 tablet, 0.1N HCl, 3 hr) was 47%, the “% Released” value (Example 12 tablet, 0.1N HCl, 4 hr) was 63% and the “% Released” value (Example 12 tablet, 0.1N HCl, 5 hr) was 77%. For the same compound, the “% Released” value (Example 12 tablet, 0.1N HCl, 6 hr) was 92%, the “% Released” value (Example 12 tablet, 0.1N HCl, 7 hr) was 98% and the “% Released” value (Example 12 tablet, 0.1N HCl, 8 hr) was 102%. The “% Released” value (Example 13 tablet, 0.1N HCl, 1 hr) was 9%, the “% Released” value (Example 13 tablet, 0.1N HCl, 2 hr) was 28% and the “% Released” value (Example 13 tablet, 0.1N HCl, 3 hr) was 45%. For the same compound, the “% Released” value (Example 13 tablet, 0.1N HCl, 4 hr) was 60%, the “% Released” value (Example 13 tablet, 0.1N HCl, 6 hr) was 83% and the “% Released” value (Example 13 tablet, 0.1N HCl, 8 hr) was 96%. For the same compound, the “% Released” value (Example 13 tablet, 0.1N HCl, 10 hr) was 99%, the “% Released” value (Example 13 tablet, 0.1N HCl, 12 hr) was 100% and the “% Released” value (Example 13 tablet, 0.1N HCl, 16 hr) was 100%. The “% Released” value (Example 14 tablet, 0.1N HCl, 4 hr) was 56%, the “% Released” value (Example 14 tablet, 0.1N HCl, 6 hr) was 76% and the “% Released” value (Example 14 tablet, 0.1N HCl, 8 hr) was 92%. For the same compound, the “% Released” value (Example 14 tablet, 0.1N HCl, 10 hr) was 99%, the “% Released (Bi-layer Tablets)” value (0.1N HCl, 1 hr) was 9.47% and the “% Released (Bi-layer Tablets)” value (0.1N HCl, 2 hr) was 27.06%. The “% Released (Bi-layer Tablets)” value (0.1N HCl, 3 hr) was 45.32%, the “% Released (Bi-layer Tablets)” value (0.1N HCl, 4 hr) was 60.81% and the “% Released (Bi-layer Tablets)” value (0.1N HCl, 5 hr) was 74.22%. The “% Released (Bi-layer Tablets)” value (0.1N HCl, 6 hr) was 83.48%, the “% Released (Bi-layer Tablets)” value (0.1N HCl, 7 hr) was 90.11% and the “% Released (Bi-layer Tablets)” value (0.1N HCl, 8 hr) was 93.47%. For the same compound, the “% Released (Homogenous Tablets)” value (0.1N HCl, 1 hr) was 16.65%, the “% Released (Homogenous Tablets)” value (0.1N HCl, 2 hr) was 40.32% and the “% Released (Homogenous Tablets)” value (0.1N HCl, 3 hr) was 59.61%. The “% Released (Homogenous Tablets)” value (0.1N HCl, 4 hr) was 75.31%, the “% Released (Homogenous Tablets)” value (0.1N HCl, 5 hr) was 86.68% and the “% Released (Homogenous Tablets)” value (0.1N HCl, 6 hr) was 94.46%. For the same compound, the “% Released (Homogenous Tablets)” value (0.1N HCl, 7 hr) was 99.30% and the “% Released (Homogenous Tablets)” value (0.1N HCl, 8 hr) was 101.01%.
